Experimental data reported in patent publication US12187713B2, “Immunomodulators, compositions and methods thereof” (Betta Pharmaceuticals Co., Ltd, priority 2019, dated 2025).

Experiments:
PD-1/PD-L1 = PD-1/PD-L1 (Homo sapiens (Human), UniProt Q9NZQ7); assay: PD-1/PD-L1 Binding Assay (Alphascreen)
Summary of the method: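 PD-1/PD-L1 binding detected by anti-6×His acceptor and streptavidin donor beads after 120 min in the dark at 25 °C. Beforehand, the two proteins were incubated 15 min at 25 °C with inhibitor at 0.015–300 nM (1% DMSO). IC50 comes from a log concentration–response curve.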

[1] = Pharmacokinetic Assay, single oral dose 5 mg/kg (Table 12); assay type: in vivo; details: mouse, plasma concentration, C57 female mice, single oral dose 5 mg/kg
Summary of the method: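 Adult female C57 mice (n=3) got one intragastric dose of 5 mg/kg in 15% DMSO, 10% Kolliphor HS 15, 75% saline. Retro-orbital blood was taken at 30 min, 2 h and 4 h into K2-EDTA. Plasma levels were measured by LC-MS/MS.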

Chain of PD-1/PD-L1 (Q9NZQ7 19-238): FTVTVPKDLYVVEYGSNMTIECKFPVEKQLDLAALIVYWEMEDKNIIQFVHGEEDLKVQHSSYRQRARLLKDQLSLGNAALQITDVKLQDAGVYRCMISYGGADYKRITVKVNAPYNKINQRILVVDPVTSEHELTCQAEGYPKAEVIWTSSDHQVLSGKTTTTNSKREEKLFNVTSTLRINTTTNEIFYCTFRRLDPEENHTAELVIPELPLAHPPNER

Cc1c(-c2ccc(CN3Cc4ccccc4C3)c(F)c2)cccc1-c1cccc(-c2nc3cc(CN4CCC[C@H]4C(=O)O)c(OC(F)F)cc3o2)c1C [Example 241, ((6-(difluoromethoxy)-2-(3″-fluoro-4″- (isoindolin-2-ylmethyl)-2,2′-dimethyl-[1,1′:3′,1″-terphenyl]-3-yl)benzo[d]oxazol-5-yl)methyl)proline]
IC50 (PD-1/PD-L1; range symbols): 5 to 50 nM
concentration at 0.5 h [1]: 102 ng/mL
concentration at 2 h [1]: 234 ng/mL
concentration at 4 h [1]: 294 ng/mL

Cc1c(-c2nc3cc(CN4CCC[C@H]4C(=O)O)c(OC(F)F)cc3o2)cccc1-c1cccc(-c2nc3cc(CN4CCC(F)C4)cc(C#N)c3o2)c1C (stereo partly drawn) [Example 162, ((2-(3′-(7-cyano-5-((3-fluoropyrrolidin-1-yl)methyl)benzo[d]oxazol-2-yl)-2,2′-dimethyl-[1,1′-biphenyl]-3-yl)-6-(difluoromethoxy)benzo[d]oxazol-5-yl)methyl)-L-proline]
IC50 (PD-1/PD-L1; range symbols): 5 to 50 nM
concentration at 0.5 h [1]: 277 ng/mL
concentration at 2 h [1]: 670 ng/mL
concentration at 4 h [1]: 441 ng/mL

Cc1nc(-c2cccc(-c3cccc(-c4nc5cc(CN6CCC[C@H]6C(=O)O)c(OC(F)F)cc5o4)c3C)c2C)oc1CN1CCCC1 [Example 304, ((6-(difluoromethoxy)-2-(2,2′-dimethyl-3′-(4-methyl-5-(pyrrolidin-1-ylmethyl)oxazol-2-yl)-[1,1′-biphenyl]-3-yl)benzo[d]oxazol-5-yl)methyl)-L-proline]
IC50 (PD-1/PD-L1; numeric values): 27 nM
concentration at 0.5 h [1]: 131 ng/mL
concentration at 2 h [1]: 150 ng/mL
concentration at 4 h [1]: 74.2 ng/mL

Cc1c(-c2ccc(CN3CCCC3)c(C(F)(F)F)c2)cccc1-c1cccc(-c2nc3cc(CN4CCC[C@H]4C(=O)O)c(OC(F)F)cc3o2)c1C [Example 233, ((6-(difluoromethoxy)-2-(2,2′-dimethyl-4″- (pyrrolidin-1-ylmethyl)-3″-(trifluoromethyl)-[1,1′:3′,1″-terphenyl]-3-yl)benzo[d]oxazol-5-yl)methyl)-L-proline]
IC50 (PD-1/PD-L1; numeric values): 41 nM
concentration at 0.5 h [1]: 143 ng/mL
concentration at 2 h [1]: 322 ng/mL
concentration at 4 h [1]: 296 ng/mL

Cc1c(-c2nc3c(o2)CCN(CC#N)C3)cccc1-c1cccc(-c2nc3cc(CN4CCC[C@H]4C(=O)O)c(OC(F)F)cc3o2)c1C [Example 195, ((2-(3′-(5-(cyanomethyl)-4,5,6,7-tetrahydrooxazolo[4,5-c]pyridin-2-yl)-2,2′-dimethyl-[1,1′-biphenyl]-3-yl)-6-(difluoromethoxy)benzo[d]oxazol-5-yl)methyl)proline]
IC50 (PD-1/PD-L1; range symbols): 5 to 50 nM
concentration at 0.5 h [1]: 256 ng/mL
concentration at 2 h [1]: 255 ng/mL
concentration at 4 h [1]: 125 ng/mL

C#CC1(O)CN(Cc2cc(C#N)c3oc(-c4cccc(-c5cccc(-c6nc7cc(CN8CCC[C@H]8C(=O)O)c(OC(F)F)cc7o6)c5C)c4C)nc3c2)C1 [Example 144, ((2-(3′-(7-cyano-5-((3-ethynyl-3-hydroxyazetidin-1-yl)methyl)benzo[d]oxazol-2-yl)-2,2′-dimethyl-[1,1′-biphenyl]-3-yl)-6-(difluoromethoxy)benzo[d]oxazol-5-yl)methyl)-L-proline]
IC50 (PD-1/PD-L1; range symbols): 0.1 to 5 nM
concentration at 0.5 h [1]: 243 ng/mL
concentration at 2 h [1]: 386 ng/mL
concentration at 4 h [1]: 222 ng/mL

Cc1c(-c2nc3cc(CN4CCC[C@H]4C(=O)O)c(OC(F)F)cc3o2)cccc1-c1cccc(-c2nc3cc(CN4CCCC4)c(C(F)(F)F)cc3o2)c1C [Example 101, ((6-(difluoromethoxy)-2-(2,2′-dimethyl-3′-(5-(pyrrolidin-1-ylmethyl)-6-(trifluoromethyl)benzo[d]oxazol-2-yl)-[1,1′-biphenyl]-3-yl)benzo[d]oxazol-5-yl)methyl)-L-proline]
IC50 (PD-1/PD-L1; numeric values): 2.2 nM
concentration at 0.5 h [1]: 178 ng/mL
concentration at 2 h [1]: 640 ng/mL
concentration at 4 h [1]: 579 ng/mL
